Measurements: PubChem BioAssay AID248 (DTP/NCI, 2004)
Several values for one entry are separate records, joined by “and”; a condition that tells them apart may be missing. Equal values may be shown once. Toxic doses and inconclusive results are not listed. Rule as the data show it: active = T/C of 150% or more; inactive = T/C below 125%.

Test system: L1210 leukemia ip in BDF1 mice, survival T/C
Experiment: NCI In Vivo Anticancer Drug Screen. Data for tumor model L1210 Leukemia (intraperitoneal) in B6D2F1 (BDF1) mice
Details: endpoint: mean survival time, higher = longer survival
Procedure, shortened: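 Survival endpoint. Drug-treated group vs vehicle group, expressed as T divided by C. Tumor passaged by transplantation.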

[1] = dose: 25.0 mg/kg/injection, schedule: Q01DX009 (ip), vehicle: saline with Tween-80
[2] = dose: 50.0 mg/kg/injection, schedule: Q01DX009 (ip), vehicle: saline with Tween-80
[3] = dose: 100.0 mg/kg/injection, schedule: Q01DX001 (ip), vehicle: saline
[4] = dose: 100.0 mg/kg/injection, schedule: Q01DX009 (ip), vehicle: Klucel (hydroxypropylcellulose) (HPC)
[5] = dose: 200.0 mg/kg/injection, schedule: Q01DX001 (ip), vehicle: saline
[6] = dose: 200.0 mg/kg/injection, schedule: Q01DX009 (ip), vehicle: Klucel (hydroxypropylcellulose) (HPC)
[7] = dose: 400.0 mg/kg/injection, schedule: Q01DX001 (ip), vehicle: saline
[8] = dose: 100.0 mg/kg/injection, schedule: Q04DX003 (ip), vehicle: saline
[9] = dose: 100.0 mg/kg/injection, schedule: Q04DX003 (ip), vehicle: Klucel (hydroxypropylcellulose) (HPC)
[10] = dose: 200.0 mg/kg/injection, schedule: Q04DX003 (ip), vehicle: Klucel (hydroxypropylcellulose) (HPC)
[11] = dose: 400.0 mg/kg/injection, schedule: Q04DX003 (ip), vehicle: Klucel (hydroxypropylcellulose) (HPC)

Measured: T/C

CC1(C)N=C(N)N=C(N)N1c1ccc(CC(C(=O)Nc2ccc(S(=O)(=O)F)cc2)c2cccc3ccccc23)cc1 (stereo not drawn)
inactive: dose: 100.0 mg/kg/injection, schedule: Q01DX001 (ip), vehicle: Klucel (hydroxypropylcellulose) (HPC) 95 % of control | dose: 200.0 mg/kg/injection, schedule: Q01DX001 (ip), vehicle: Klucel (hydroxypropylcellulose) (HPC) 89 % of control | dose: 400.0 mg/kg/injection, schedule: Q01DX001 (ip), vehicle: Klucel (hydroxypropylcellulose) (HPC) 89 % of control

O=C1c2ccccc2-c2ccc(-c3ccccc3)c3cccc1c23
inactive: dose: 50.0 mg/kg/injection, schedule: Q04DX002 (ip), vehicle: Klucel (hydroxypropylcellulose) (HPC) 105 % of control | dose: 100.0 mg/kg/injection, schedule: Q04DX002 (ip), vehicle: Klucel (hydroxypropylcellulose) (HPC) 102 % of control | dose: 200.0 mg/kg/injection, schedule: Q04DX002 (ip), vehicle: Klucel (hydroxypropylcellulose) (HPC) 98 % of control | dose: 200.0 mg/kg/injection, schedule: Q04DX002 (ip), vehicle: saline with Tween-80 105 % of control | dose: 400.0 mg/kg/injection, schedule: Q04DX002 (ip), vehicle: saline with Tween-80 98 % of control

CCOC(=O)C1CCC(NC(=O)N(CCCl)N=O)CC1 (stereo not drawn)
inactive: dose: 3.0 mg/kg/injection, schedule: Q01DX001 (ip), vehicle: other 109 % of control
active: dose: 12.0 mg/kg/injection, schedule: Q01DX001 (ip), vehicle: other 189 % of control | dose: 16.0 mg/kg/injection, schedule: Q01DX001 (ip), vehicle: other 281 % of control | dose: 20.0 mg/kg/injection, schedule: Q01DX001 (ip), vehicle: other 298 % of control | dose: 21.0 mg/kg/injection, schedule: Q01DX001 (ip), vehicle: other 315 % of control | dose: 24.0 mg/kg/injection, schedule: Q01DX001 (ip), vehicle: other 267 % of control | dose: 30.0 mg/kg/injection, schedule: Q01DX001 (ip), vehicle: other 283 % of control | dose: 31.0 mg/kg/injection, schedule: Q01DX001 (ip), vehicle: other 317 % of control and 337 % of control | dose: 44.0 mg/kg/injection, schedule: Q01DX001 (ip), vehicle: other 270 % of control | dose: 47.0 mg/kg/injection, schedule: Q01DX001 (ip), vehicle: other 252 % of control | dose: 62.0 mg/kg/injection, schedule: Q01DX001 (ip), vehicle: other 259 % of control | dose: 70.0 mg/kg/injection, schedule: Q01DX001 (ip), vehicle: other 159 % of control

O=C(Nc1ccc(Nc2ccccc2)cc1)Nc1cccc(C(F)(F)F)c1
inactive: dose: 100.0 mg/kg/injection, schedule: Q01DX001 (ip), vehicle: gum acacia 94 % of control and 97 % of control | dose: 100.0 mg/kg/injection, schedule: Q01DX009 (ip), vehicle: gum acacia 94 % of control and 98 % of control | dose: 100.0 mg/kg/injection, schedule: Q04DX002 (ip), vehicle: gum acacia 95 % of control | dose: 100.0 mg/kg/injection, schedule: Q04DX003 (ip), vehicle: gum acacia 100 % of control and 101 % of control | dose: 200.0 mg/kg/injection, schedule: Q01DX001 (ip), vehicle: gum acacia 97 % of control and 90 % of control | dose: 200.0 mg/kg/injection, schedule: Q01DX009 (ip), vehicle: gum acacia 98 % of control and 103 % of control | dose: 200.0 mg/kg/injection, schedule: Q04DX002 (ip), vehicle: gum acacia 93 % of control and 86 % of control | dose: 200.0 mg/kg/injection, schedule: Q04DX003 (ip), vehicle: gum acacia 94 % of control | dose: 400.0 mg/kg/injection, schedule: Q01DX001 (ip), vehicle: gum acacia 103 % of control and 87 % of control | dose: 400.0 mg/kg/injection, schedule: Q01DX009 (ip), vehicle: gum acacia 97 % of control and 91 % of control | dose: 400.0 mg/kg/injection, schedule: Q04DX002 (ip), vehicle: gum acacia 100 % of control | dose: 400.0 mg/kg/injection, schedule: Q04DX003 (ip), vehicle: gum acacia 95 % of control and 96 % of control

NC(=S)N/N=C/c1cccc(CC(O)(C(F)(F)F)C(F)(F)F)n1
inactive: dose: 12.5 mg/kg/injection, schedule: Q01DX009 (ip), vehicle: saline with Tween-80 97 % of control | [1] 95 % of control | [2] 93 % of control

O=C(O)c1occ(Cl)c1Cl
inactive: dose: 25.0 mg/kg/injection, schedule: Q01DX009 (ip), vehicle: water 101 % of control | dose: 50.0 mg/kg/injection, schedule: Q01DX009 (ip), vehicle: water 105 % of control | [3] 103 % of control | [4] 97 % of control | dose: 100.0 mg/kg/injection, schedule: Q01DX009 (ip), vehicle: water 91 % of control | dose: 100.0 mg/kg/injection, schedule: Q04DX003 (ip), vehicle: water 102 % of control | [5] 101 % of control | [6] 95 % of control | dose: 200.0 mg/kg/injection, schedule: Q04DX003 (ip), vehicle: water 90 % of control

C=C(C)CN=C=S
inactive: [1] 100 % of control | dose: 25.0 mg/kg/injection, schedule: Q04DX003 (ip), vehicle: saline with Tween-80 101 % of control | [2] 98 % of control | dose: 50.0 mg/kg/injection, schedule: Q04DX003 (ip), vehicle: saline with Tween-80 109 % of control | dose: 100.0 mg/kg/injection, schedule: Q01DX009 (ip), vehicle: saline with Tween-80 104 % of control | dose: 100.0 mg/kg/injection, schedule: Q04DX003 (ip), vehicle: saline with Tween-80 103 % of control

COC(=O)c1cc(C)c(C)cc1N
inactive: [3] 102 % of control | [5] 96 % of control | [7] 93 % of control

COc1cccc2c1OC(COS(C)(=O)=O)CO2 (stereo not drawn) (tested in a mixture with another compound)
inactive: dose: 100.0 mg/kg/injection, schedule: Q01DX001 (ip), vehicle: carboxymethylcellulose (CMC) 95 % of control | dose: 200.0 mg/kg/injection, schedule: Q01DX001 (ip), vehicle: carboxymethylcellulose (CMC) 95 % of control | dose: 400.0 mg/kg/injection, schedule: Q01DX001 (ip), vehicle: carboxymethylcellulose (CMC) 97 % of control

c1ccc2c(c1)ccc1c3ccc4ccccc4c3[nH]c21
inactive: [3] 95 % of control | [5] 90 % of control | [7] 94 % of control

COC(=O)c1ccc(OC(=O)Nc2cccc(C(C)=O)c2)cc1
inactive: [4] 96 % of control | [6] 101 % of control | dose: 400.0 mg/kg/injection, schedule: Q01DX009 (ip), vehicle: Klucel (hydroxypropylcellulose) (HPC) 104 % of control

CC(=O)Nc1ccc(NC(=O)Nc2cccc(C(F)(F)F)c2)cc1
inactive: [4] 94 % of control | [6] 87 % of control

O=C1OC(=O)C2C3OC(C(Br)C3Br)C12 (stereo not drawn)
inactive: dose: 16.0 mg/kg/injection, schedule: Q04DX003 (ip), vehicle: saline 100 % of control | dose: 37.5 mg/kg/injection, schedule: Q04DX003 (ip), vehicle: saline 95 % of control | dose: 50.0 mg/kg/injection, schedule: Q04DX003 (ip), vehicle: saline 101 % of control | [8] 100 % of control and 90 % of control

O=[N+]([O-])c1ccccc1C=Nc1ccccc1O
inactive: [9] 103 % of control | [10] 97 % of control | [11] 94 % of control

CCCCNS(=O)(=O)c1ccc(N)cc1
inactive: dose: 100.0 mg/kg/injection, schedule: Q01DX009 (ip), vehicle: saline sonified 102 % of control | [9] 98 % of control | dose: 200.0 mg/kg/injection, schedule: Q01DX009 (ip), vehicle: saline sonified 102 % of control | [10] 109 % of control | dose: 400.0 mg/kg/injection, schedule: Q01DX009 (ip), vehicle: saline sonified 98 % of control | [11] 117 % of control

O=S(=O)(CC(O)(c1ccccc1)c1ccccc1)CC(O)(c1ccccc1)c1ccccc1
inactive: dose: 50.0 mg/kg/injection, schedule: Q01DX001 (ip), vehicle: saline 93 % of control | [3] 91 % of control | [5] 93 % of control | [7] 87 % of control

O=C1C=CC(=O)N1c1ccc(Br)c(Cl)c1
inactive: dose: 12.5 mg/kg/injection, schedule: Q04DX002 (ip), vehicle: other 121 % of control | dose: 25.0 mg/kg/injection, schedule: Q04DX002 (ip), vehicle: other 105 % of control | dose: 50.0 mg/kg/injection, schedule: Q04DX002 (ip), vehicle: other 112 % of control

CCOC(=O)C1CCCNC1=O (stereo not drawn)
inactive: [8] 105 % of control | dose: 200.0 mg/kg/injection, schedule: Q04DX003 (ip), vehicle: saline 116 % of control | dose: 400.0 mg/kg/injection, schedule: Q04DX003 (ip), vehicle: saline 108 % of control

CC(=O)OCC1CC2CC(O)C1C2 (stereo not drawn)
inactive: dose: 75.0 mg/kg/injection, schedule: Q01DX001 (ip), vehicle: acetone 102 % of control
